# According to the supplement of paper PMC10307832:
# How the values were obtained:
# Assay in all cases: relative viability (nuclei count vs DMSO), 5 days (fraction); higher = more cells survive
# [1] = tested on: BEN
# How it was run: (§1)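 Values are medians from duplicate plates. Each reflects relative viability, defined as the nuclei count of treated wells over that of vehicle wells. Lung cancer cell lines in 1536-well plates were pin-tool dosed one day after seeding with one drug alone or with a fixed anchor-drug dose plus five library-drug doses (not always all listed) in √10 steps, then fixed, stained and imaged at 4× after 5 days.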
# [2] = tested on: HCC-78
# How it was run: as §1
# [3] = tested on: NCI-H2228
# How it was run: as §1
# [4] = tested on: NCI-H520
# How it was run: as §1
# [5] = tested on: NCI-H2009
# How it was run: as §1
# [6] = tested on: UMC-11
# How it was run: as §1
# [7] = tested on: LK-2
# How it was run: as §1
# [8] = tested on: HCC-44
# How it was run: as §1
# [9] = tested on: LOU-NH91
# How it was run: as §1
# [10] = tested on: SW 1573
# How it was run: as §1
# [11] = tested on: NCI-H1734
# How it was run: as §1
# [12] = tested on: NCI-H2405
# How it was run: as §1
# [13] = tested on: NCI-H1355
# How it was run: as §1
# [14] = tested on: NCI-H838
# How it was run: as §1
# [15] = tested on: NCI-H727
# How it was run: as §1
# [16] = tested on: NCI-H1666
# How it was run: as §1
# [17] = tested on: HCC-366
# How it was run: as §1
# [18] = tested on: 201T
# How it was run: as §1
# [19] = tested on: NCI-H1650
# How it was run: as §1
# [20] = tested on: NCI-H1755
# How it was run: as §1
# [21] = tested on: NCI-H2347
# How it was run: as §1
smiles,measurement,setting,value
O=C(O)CCCCC(CCSCc1ccccc1)SCc1ccccc1 (centres undefined) [CPI-613] + CC1(C)CCC(c2ccc(Cl)cc2)=C(CN2CCN(c3ccc(C(=O)NS(=O)(=O)c4ccc(N[C@H](CCN5CCOCC5)CSc5ccccc5)c(S(=O)(=O)C(F)(F)F)c4)cc3)CC2)C1 [Navitoclax] (partner 0.5 µM),relative viability,[1]; first compound 5 µM,0.0595
same,relative viability,[1]; first compound 15.81 µM,0.0465
same,relative viability,[1]; first compound 50 µM,0.0686
same,relative viability,[1]; first compound 158.11 µM,0.0624
same,relative viability,[1]; first compound 500 µM,0.0516
same,relative viability,[2]; first compound 5 µM,0.731
same,relative viability,[2]; first compound 15.81 µM,0.749
same,relative viability,[2]; first compound 158.11 µM,0.783
same,relative viability,[2]; first compound 500 µM,0.876
same,relative viability,[3]; first compound 5 µM,1.04
same,relative viability,[3]; first compound 15.81 µM,0.755
same,relative viability,[3]; first compound 50 µM,0.758
same,relative viability,[3]; first compound 158.11 µM,0.297
same,relative viability,[3]; first compound 500 µM,0.0138
same,relative viability,[4]; first compound 5 µM,0.932
same,relative viability,[4]; first compound 15.81 µM,1.1
same,relative viability,[4]; first compound 50 µM,1.18
same,relative viability,[4]; first compound 158.11 µM,0.355
same,relative viability,[4]; first compound 500 µM,0.154
same,relative viability,[5]; first compound 5 µM,1.18
same,relative viability,[5]; first compound 15.81 µM,1.08
same,relative viability,[5]; first compound 50 µM,1.11
same,relative viability,[5]; first compound 158.11 µM,0.264
same,relative viability,[5]; first compound 500 µM,0.0303
same,relative viability,[6]; first compound 5 µM,0.28
same,relative viability,[6]; first compound 15.81 µM,0.324
same,relative viability,[6]; first compound 50 µM,0.278
same,relative viability,[6]; first compound 158.11 µM,0.143
same,relative viability,[6]; first compound 500 µM,0.0935
same,relative viability,[7]; first compound 5 µM,0.957
same,relative viability,[7]; first compound 15.81 µM,0.922
same,relative viability,[7]; first compound 50 µM,1.05
same,relative viability,[7]; first compound 158.11 µM,0.966
same,relative viability,[7]; first compound 500 µM,0.87
same,relative viability,[8]; first compound 5 µM,1.03
same,relative viability,[8]; first compound 15.81 µM,1.08
same,relative viability,[8]; first compound 50 µM,1.07
same,relative viability,[8]; first compound 158.11 µM,0.322
same,relative viability,[8]; first compound 500 µM,0.0385
same,relative viability,[9]; first compound 5 µM,0.683
same,relative viability,[9]; first compound 15.81 µM,0.653
same,relative viability,[9]; first compound 50 µM,0.664
same,relative viability,[9]; first compound 158.11 µM,0.682
same,relative viability,[9]; first compound 500 µM,0.579
same,relative viability,[10]; first compound 5 µM,0.871
same,relative viability,[10]; first compound 15.81 µM,0.962
same,relative viability,[10]; first compound 50 µM,0.792
same,relative viability,[10]; first compound 158.11 µM,0.819
same,relative viability,[10]; first compound 500 µM,0.904
same,relative viability,[11]; first compound 5 µM,0.776
same,relative viability,[11]; first compound 15.81 µM,0.677
same,relative viability,[11]; first compound 50 µM,0.75
same,relative viability,[11]; first compound 158.11 µM,0.545
same,relative viability,[11]; first compound 500 µM,0.117
same,relative viability,[12]; first compound 5 µM,0.929
same,relative viability,[12]; first compound 15.81 µM,0.796
same,relative viability,[12]; first compound 50 µM,0.765
same,relative viability,[12]; first compound 158.11 µM,0.795
same,relative viability,[12]; first compound 500 µM,0.67
same,relative viability,[13]; first compound 5 µM,0.993
same,relative viability,[13]; first compound 15.81 µM,0.988
same,relative viability,[13]; first compound 50 µM,1
same,relative viability,[13]; first compound 158.11 µM,0.593
same,relative viability,[13]; first compound 500 µM,0.128
same,relative viability,[14]; first compound 5 µM,1.12
same,relative viability,[14]; first compound 15.81 µM,1.01
same,relative viability,[14]; first compound 50 µM,1.03
same,relative viability,[14]; first compound 158.11 µM,0.39
same,relative viability,[14]; first compound 500 µM,0.113
same,relative viability,[15]; first compound 5 µM,0.386
same,relative viability,[15]; first compound 15.81 µM,0.337
same,relative viability,[15]; first compound 50 µM,0.331
same,relative viability,[15]; first compound 158.11 µM,0.0645
same,relative viability,[15]; first compound 500 µM,0.046
same,relative viability,[16]; first compound 5 µM,0.944
same,relative viability,[16]; first compound 15.81 µM,1.16
same,relative viability,[16]; first compound 50 µM,1.03
same,relative viability,[16]; first compound 158.11 µM,0.296
same,relative viability,[16]; first compound 500 µM,0.212
same,relative viability,[17]; first compound 5 µM,1.03
same,relative viability,[17]; first compound 15.81 µM,0.99
same,relative viability,[17]; first compound 50 µM,1.1
same,relative viability,[17]; first compound 158.11 µM,0.774
same,relative viability,[17]; first compound 500 µM,0.0086
same,relative viability,[18]; first compound 5 µM,1.23
same,relative viability,[18]; first compound 15.81 µM,1.2
same,relative viability,[18]; first compound 50 µM,1.17
same,relative viability,[18]; first compound 158.11 µM,1.14
same,relative viability,[18]; first compound 500 µM,1.09
same,relative viability,[19]; first compound 5 µM,1.17
same,relative viability,[19]; first compound 15.81 µM,1.25
same,relative viability,[19]; first compound 50 µM,1.08
same,relative viability,[19]; first compound 158.11 µM,0.16
same,relative viability,[19]; first compound 500 µM,0.034
same,relative viability,[20]; first compound 5 µM,0.945
same,relative viability,[20]; first compound 15.81 µM,0.934
same,relative viability,[20]; first compound 50 µM,0.935
same,relative viability,[20]; first compound 158.11 µM,0.831
same,relative viability,[20]; first compound 500 µM,0.161
same,relative viability,[21]; first compound 5 µM,0.748
same,relative viability,[21]; first compound 15.81 µM,0.747
same,relative viability,[21]; first compound 50 µM,0.702
same,relative viability,[21]; first compound 158.11 µM,0.768
same,relative viability,[21]; first compound 500 µM,0.734
